In US8741897B2, “Glucocorticoid mimetics, methods of making them, pharmaceutical compositions and uses thereof” (Boehringer Ingelheim Pharmaceuticals Inc., priority 2003, dated 2014):

Experiments:
[1] = target: T1, human glucocorticoid receptor (GR) complex (Homo sapiens, UniProt P04150); assay: Glucocorticoid receptor competitive binding assay (fluorescence polarization, TAMRA-labeled dexamethasone probe); conditions: compounds of Formula (IA)
T1 construct: made in house; host or cells: insect expression system (baculovirus lysate)
T1 sequence (P04150 1-777): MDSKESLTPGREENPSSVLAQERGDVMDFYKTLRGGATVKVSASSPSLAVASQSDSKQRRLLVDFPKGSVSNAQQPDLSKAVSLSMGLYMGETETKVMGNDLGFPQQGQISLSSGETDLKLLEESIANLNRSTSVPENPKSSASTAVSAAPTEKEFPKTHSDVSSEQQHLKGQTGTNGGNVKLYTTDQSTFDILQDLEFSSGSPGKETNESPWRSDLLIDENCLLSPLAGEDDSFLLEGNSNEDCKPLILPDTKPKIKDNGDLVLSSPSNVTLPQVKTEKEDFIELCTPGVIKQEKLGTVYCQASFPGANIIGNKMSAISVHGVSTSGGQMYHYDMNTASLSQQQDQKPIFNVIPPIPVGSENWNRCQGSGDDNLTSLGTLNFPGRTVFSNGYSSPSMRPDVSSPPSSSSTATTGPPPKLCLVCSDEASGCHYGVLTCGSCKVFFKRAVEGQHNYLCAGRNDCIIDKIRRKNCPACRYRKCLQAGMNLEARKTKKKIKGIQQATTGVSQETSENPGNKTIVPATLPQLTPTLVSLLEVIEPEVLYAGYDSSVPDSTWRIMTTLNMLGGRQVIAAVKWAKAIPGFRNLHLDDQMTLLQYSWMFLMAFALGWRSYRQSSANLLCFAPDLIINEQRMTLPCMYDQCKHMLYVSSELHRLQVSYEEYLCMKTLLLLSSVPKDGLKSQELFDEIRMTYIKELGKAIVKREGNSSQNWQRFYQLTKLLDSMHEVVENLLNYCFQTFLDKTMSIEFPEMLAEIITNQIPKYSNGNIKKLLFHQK
Method in brief: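 Fluorescence-polarization competition against 15 nM TAMRA-dexamethasone (stock added to the mix) for human GR complex from baculovirus lysate diluted 1:170. Buffer: 10 mM TES, 50 mM KCl, 20 mM Na2MoO4, 1.5 mM EDTA, 0.04% CHAPS, 10% glycerol, 1 mM DTT, pH 7.4. IC50 from 4-parameter logistic fit.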

[2] = tested on: glucocorticoid receptor function; assay: one or more of the above assays (GR binding and glucocorticoid receptor cell assays: aromatase, IL-6, TAT, MMTV-Luc, IL-8, ICAM-Luc); type: cell-based; conditions: assay not specified per compound

Row | Compound | activity in the GR binding assay [1] | activity as agonists of the glucocorticoid receptor function in one or more of the above assays [2]
1 | Cc1ccc(F)cc1C(C)(C)CC(O)(Cc1cc2ncncc2[nH]1)C(F)(F)F (centres unmarked) [1,1,1-Trifluoro-4-(5-fluoro-2-methylphenyl)-4-methyl-2-(5H-pyrrolo[3,2-d]pyrimidin-6-ylmethyl)pentan-2-ol] | potent activity | potent agonists
2 | CC(C)(CC(O)(Cc1ccnc2ccccc12)C(F)(F)F)c1ccccc1F (centres unmarked) [1,1,1-Trifluoro-4-(2-fluorophenyl)-4-methyl-2-quinolin-4-ylmethylpentan-2-ol] | potent activity | potent agonists
3 | CC(C)(CC(O)(Cc1cc2ccccc2[nH]1)C(F)(F)F)c1ccc(F)cc1 (centres unmarked) [1,1,1-Trifluoro-4-(4-fluorophenyl)-2-(1H-indol-2-ylmethyl)-4-methylpentan-2-ol] | potent activity | potent agonists
4 | Cc1cc2[nH]c(CC(O)(CC(C)(C)c3cc(F)ccc3C)C(F)(F)F)cc2cn1 (centres unmarked) [1,1,1-Trifluoro-4-(5-fluoro-2-methylphenyl)-4-methyl-2-(6-methyl-1H-pyrrolo[3,2-c]pyridin-2-ylmethyl)pentan-2-ol] | potent activity | potent agonists
5 | COc1ccc(F)cc1C(C)(C)CC(O)(Cc1cc2cc(C(=O)NCC#N)ccc2[nH]1)C(F)(F)F (centres unmarked) [2-[4-(5-Fluoro-2-methoxyphenyl)-2-hydroxy-4-methyl-2-trifluoromethylpentyl]-1H-indole-5-carboxylic acid cyanomethylamide] | potent activity | potent agonists
6 | COc1cc(F)ccc1C(C)(C)CC(O)(Cc1cc(C)nc(C)c1)C(F)(F)F (centres unmarked) [2-(2,6-Dimethylpyridin-4-ylmethyl)-1,1,1-trifluoro-4-(4-fluoro-2-methoxyphenyl)-4-methylpentan-2-ol] | potent activity | potent agonists
7 | COc1ccc(F)cc1C(C)(C)CC(O)(Cc1ccnc2c(C)cc(C)cc12)C(F)(F)F (centres unmarked) [2-(6,8-Dimethylquinolin-4-ylmethyl)-1,1,1-trifluoro-4-(5-fluoro-2-methoxyphenyl)-4-methylpentan-2-ol] | potent activity | potent agonists
8 | Cc1ccc(F)cc1C(C)(C)CC(O)(Cc1ccnc2ccccc12)C(F)(F)F (centres unmarked) [1,1,1-Trifluoro-4-(5-fluoro-2-methylphenyl)-4-methyl-2-quinolin-4-ylmethylpentan-2-ol] | potent activity | potent agonists
9 | Cc1ccc(F)cc1C(C)(C)CC(O)(Cc1cc2cc(N(C)C)ncc2[nH]1)C(F)(F)F (centres unmarked) [2-(5-Dimethylamino-1H-pyrrolo[2,3-c]pyridin-2-ylmethyl)-1,1,1-trifluoro-4-(5-fluoro-2-methylphenyl)-4-methylpentan-2-ol] | potent activity | potent agonists
10 | COc1ccc(F)cc1C(C)(C)CC(O)(Cc1[nH]c2ccncc2c1CN(C)C)C(F)(F)F (centres unmarked) [2-(3-Dimethylaminomethyl-1H-pyrrolo[3,2-c]pyridin-2-ylmethyl)-1,1,1-trifluoro-4-(5-fluoro-2-methoxyphenyl)-4-methylpentan-2-ol] | potent activity | potent agonists
11 | Cc1ccc(O)c(C(C)(C)CC(O)(Cc2cc3ccccc3[nH]2)C(F)(F)F)c1 (centres unmarked) [4-Methyl-2-[4,4,4-trifluoro-3-hydroxy-3-(1H-indol-2-ylmethyl)-1,1-dimethylbutyl]phenol] | potent activity | potent agonists
12 | COc1ccc(F)cc1C(C)(C)CC(O)(Cc1ccnc2cc(C)ccc12)C(F)(F)F (centres unmarked) [1,1,1-Trifluoro-4-(5-fluoro-2-methoxyphenyl)-4-methyl-2-(7-methylquinolin-4-ylmethyl)pentan-2-ol] | potent activity | potent agonists
13 | CC(C)(CC(O)(Cc1cc2cc(C#N)ccc2[nH]1)C(F)(F)F)c1cccc(C2OCCO2)c1 (centres unmarked) [2-[4-(3-[1,3]Dioxolan-2-ylphenyl)-2-hydroxy-4-methyl-2-trifluoromethylpentyl]-1H-indole-5-carbonitrile] | potent activity | potent agonists
14 | CC(C)(CC(O)(Cc1cc2ccc(C#N)cc2[nH]1)C(F)(F)F)c1cc(F)ccc1O (centres unmarked) [2-[4-(5-Fluoro-2-hydroxyphenyl)-2-hydroxy-4-methyl-2-trifluoromethylpentyl]-1H-indole-6-carbonitrile] | potent activity | potent agonists
15 | COc1cc(F)ccc1C(C)(C)CC(O)(Cc1cc2c(C)ccc(F)c2[nH]1)C(F)(F)F (centres unmarked) [1,1,1-Trifluoro-4-(4-fluoro-2-methoxyphenyl)-2-(7-fluoro-4-methyl-1H-indol-2-ylmethyl)-4-methylpentan-2-ol] | potent activity | potent agonists
16 | CSc1cc2c(c(C(C)(C)CC(O)(Cc3[nH]c4ccccc4c3C#N)C(F)(F)F)c1)OCC2 (centres unmarked) [2-[2-Hydroxy-4-methyl-4-(5-methylsulfanyl-2,3-dihydrobenzofuran-7-yl)-2-trifluoromethylpentyl]-1H-indole-3-carbonitrile] | potent activity | potent agonists
17 | CC(C)(CC(O)(Cc1ccnc2ccccc12)C(F)(F)F)c1cccc(O)c1 (centres unmarked) [3-(4,4,4-Trifluoro-3-hydroxy-1,1-dimethyl-3-quinolin-4-ylmethylbutyl)phenol] | potent activity | potent agonists
18 | COc1ccc(F)cc1C(C)(C)CC(O)(Cc1cc2cc(C(=O)N3CCC(O)C3)ccc2[nH]1)C(F)(F)F (centres unmarked) [{2-[4-(5-Fluoro-2-methoxyphenyl)-2-hydroxy-4-methyl-2-trifluoromethylpentyl]-1H-indol-5-yl}(3-hydroxypyrrolidin-1-yl)methanone] | potent activity | potent agonists
19 | CCC(C)(CC(O)(Cc1ccnc2ccccc12)C(F)(F)F)c1ccccc1 (centres unmarked) [1,1,1-Trifluoro-4-methyl-4-phenyl-2-quinolin-4-ylmethylhexan-2-ol] | potent activity | potent agonists
20 | COc1ccc(F)cc1C(C)(C)CC(O)(Cc1cc2c(C)nccc2[nH]1)C(F)(F)F (centres unmarked) [1,1,1-Trifluoro-4-(5-fluoro-2-methoxyphenyl)-4-methyl-2-(4-methyl-1H pyrrolo[3,2-c]pyridin-2-ylmethyl)pentan-2-ol] | potent activity | potent agonists
21 | COc1ccc(F)cc1C(C)(C)CC(O)(Cc1cc2cc(C(F)(F)F)ncc2[nH]1)C(F)(F)F (centres unmarked) [1,1,1-Trifluoro-4-(5-fluoro-2-methoxyphenyl)-4-methyl-2-(5-trifluoromethyl-1H-pyrrolo[2,3-c]pyridin-2-ylmethyl)pentan-2-ol] | potent activity | potent agonists
22 | COc1ccc(S(C)(=O)=O)cc1C(C)(C)CC(O)(Cc1[nH]c2ccccc2c1C#N)C(F)(F)F (centres unmarked) [2-[2-Hydroxy-4-(5-methanesulfonyl-2-methoxyphenyl)-4-methyl-2-trifluoromethylpentyl]-1H-indole-3-carbonitrile] | potent activity | potent agonists
